Results published in ChEMBL document CHEMBL4732190, “Identification of Potent and Long-Acting Single-Chain Peptide Mimetics of Human Relaxin-2 for Cardiovascular Diseases” (J Med Chem, 2021).
*1 amine or outer side, *2 acyl side, *3 side chain or, on linkers, in order; H or OH if unused. Where a SMILES comes first, the peptide text is derived from it. [ ]: non-standard residue; d: D form. ξ: configuration not given here. β2hAla(2S) = C[C@@H](CN[*:1])C(=O)[*:2]; ξβ2hAla = CC(CN[*:1])C(=O)[*:2]

Legend:
Relaxin receptor 1 = target: T1, Relaxin receptor 1 (Homo sapiens, UniProt Q9HBX9); experiment: Agonist activity at RXFP1 endogenously expressed in human OVCAR-5 cells assessed as increase in IBMX-induced cAMP accumulation pretreated with IBMX for 40 mins followed by compound addition and measured after 30 mins by HTRF assay; type: functional, cell-based
T1 sequence (Q9HBX9 whole entry): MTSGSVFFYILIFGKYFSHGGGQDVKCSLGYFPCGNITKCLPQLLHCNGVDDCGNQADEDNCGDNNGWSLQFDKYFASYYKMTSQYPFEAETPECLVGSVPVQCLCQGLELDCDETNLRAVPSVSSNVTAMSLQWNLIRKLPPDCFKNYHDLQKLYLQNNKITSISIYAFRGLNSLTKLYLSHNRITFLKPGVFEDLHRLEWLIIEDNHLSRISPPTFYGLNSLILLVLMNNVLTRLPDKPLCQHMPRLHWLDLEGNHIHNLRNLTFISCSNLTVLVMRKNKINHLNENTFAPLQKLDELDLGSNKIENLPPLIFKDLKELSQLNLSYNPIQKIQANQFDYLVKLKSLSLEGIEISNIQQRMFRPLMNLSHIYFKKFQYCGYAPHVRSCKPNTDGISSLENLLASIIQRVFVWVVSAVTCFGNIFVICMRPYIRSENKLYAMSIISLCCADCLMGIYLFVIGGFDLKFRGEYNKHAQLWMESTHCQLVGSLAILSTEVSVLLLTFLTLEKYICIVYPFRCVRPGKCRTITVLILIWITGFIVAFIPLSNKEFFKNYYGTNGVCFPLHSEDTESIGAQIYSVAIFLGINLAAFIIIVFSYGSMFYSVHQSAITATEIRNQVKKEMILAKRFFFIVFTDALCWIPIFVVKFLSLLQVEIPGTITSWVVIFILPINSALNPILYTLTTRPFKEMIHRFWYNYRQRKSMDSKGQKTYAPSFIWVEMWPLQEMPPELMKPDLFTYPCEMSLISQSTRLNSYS

[1] = target: T2, Relaxin receptor 1 (Homo sapiens) (UniProt Q9HBX9); experiment: Agonist activity at RXFP1 endogenously expressed in human OVCAR-5 cells assessed as increase in IBMX-induced cAMP accumulation pretreated with IBMX for 40 mins followed by compound addition and measured after 30 mins by HTRF assay relative to relaxin; type: functional, cell-based; details: filed as agonist
T2 sequence (whole entry): T1 sequence (Q9HBX9 whole entry)

Compound | EC50 (Relaxin receptor 1) [nM] | Emax [1] [%]
CC[C@H](C)[C@H](NC(=O)[C@H](CCC(N)=O)NC(=O)[C@H](C)NC(=O)[C@H](CCCNC(=N)N)NC(=O)[C@@H](NC(=O)[C@H](CC(C)C)NC(=O)[C@H](CCC(=O)O)NC(=O)[C@H](CCCNC(=N)N)NC(=O)CNC(=O)[C@H](CO)NC(=O)[C@H](CC(C)C)NC(=O)[C@H](CCCCN)NC(=O)[C@@H](NC(=O)[C@@H](NC(C)=O)C(C)C)[C@@H](C)CC)C(C)C)C(=O)NC[C@H](C)C(=O)N[C@H](C(=O)N[C@@H](CO)C(=O)NCC(=O)N[C@@H](CCSC)C(=O)N[C@@H](CO)C(=O)N[C@H](C(=O)N[C@@H](Cc1c[nH]c2ccccc12)C(=O)N[C@@H](CO)C(=O)N[C@@H](CCCCN)C(=O)N[C@@H](CCCNC(=N)N)C(=O)N[C@@H](CO)C(=O)N[C@@H](CC(C)C)C(N)=O)[C@@H](C)O)[C@@H](C)CC (HELM PEPTIDE1{[ac].V.I.K.L.S.G.R.E.L.V.R.A.Q.I.[C[C@@H](CN[*:1])C(=O)[*:2]].I.S.G.M.S.T.W.S.K.R.S.L.[am]}$$$$V2.0) | 708 | 78
CC[C@H](C)[C@H](NC(=O)[C@H](CCC(N)=O)NC(=O)[C@H](C)NC(=O)[C@H](CCCNC(=N)N)NC(=O)[C@@H](NC(=O)[C@@H](NC(=O)[C@H](CCC(=O)O)NC(=O)[C@H](CCCNC(=N)N)NC(=O)CNC(=O)[C@H](CCC(=O)O)NC(=O)[C@H](CC(C)C)NC(=O)[C@H](CCCCN)NC(=O)[C@@H](NC(=O)[C@@H](NC(C)=O)C(C)C)[C@@H](C)CC)[C@@H](C)CC)C(C)C)C(=O)NC[C@H](C)C(=O)N[C@H](C(=O)N[C@@H](CO)C(=O)NCC(=O)N[C@@H](CCSC)C(=O)N[C@@H](CO)C(=O)N[C@H](C(=O)N[C@@H](Cc1c[nH]c2ccccc12)C(=O)N[C@@H](CO)C(=O)N[C@@H](CCCCN)C(=O)N[C@@H](CCCNC(=N)N)C(=O)N[C@@H](CCCCN)C(=O)N[C@@H](CCCCN)C(N)=O)[C@@H](C)O)[C@@H](C)CC (HELM PEPTIDE1{[ac].V.I.K.L.E.G.R.E.I.V.R.A.Q.I.[C[C@@H](CN[*:1])C(=O)[*:2]].I.S.G.M.S.T.W.S.K.R.K.K.[am]}$$$$V2.0) | 146 | 102
CC[C@H](C)[C@H](NC(=O)[C@H](CCC(N)=O)NC(=O)[C@H](C)NC(=O)[C@H](CCCNC(=N)N)NC(=O)[C@@H](NC(=O)[C@H](CC(C)C)NC(=O)[C@H](CCC(=O)O)NC(=O)[C@H](CCCNC(=N)N)NC(=O)CNC(=O)[C@H](CO)NC(=O)[C@H](CC(C)C)NC(=O)[C@H](CCCCN)NC(=O)[C@@H](NC(=O)[C@@H](NC(=O)[C@H](CCC(=O)O)NC(=O)[C@H](CCC(=O)O)NC(C)=O)C(C)C)[C@@H](C)CC)C(C)C)C(=O)N[C@@H](C)C(=O)NC[C@H](C)C(=O)N[C@@H](CO)C(=O)NCC(=O)N[C@@H](CCSC)C(=O)N[C@@H](CO)C(=O)N[C@H](C(=O)N[C@@H](Cc1c[nH]c2ccccc12)C(=O)N[C@@H](CO)C(=O)N[C@@H](CCCCN)C(=O)N[C@@H](CCCNC(=N)N)C(=O)N[C@@H](CO)C(=O)N[C@@H](CC(C)C)C(N)=O)[C@@H](C)O (HELM PEPTIDE1{[ac].E.E.V.I.K.L.S.G.R.E.L.V.R.A.Q.I.A.[C[C@@H](CN[*:1])C(=O)[*:2]].S.G.M.S.T.W.S.K.R.S.L.[am]}$$$$V2.0) | 200 | 91
CC[C@H](C)[C@H](NC(=O)[C@H](CCC(N)=O)NC(=O)[C@H](C)NC(=O)[C@H](CCCNC(=N)N)NC(=O)[C@@H](NC(=O)[C@H](CC(C)C)NC(=O)[C@H](CCC(=O)O)NC(=O)[C@H](CCCNC(=N)N)NC(=O)CNC(=O)[C@H](CO)NC(=O)[C@H](CC(C)C)NC(=O)[C@H](CCCCN)NC(=O)[C@@H](NC(=O)[C@@H](NC(=O)[C@H](CCC(=O)O)NC(=O)[C@H](CCC(=O)O)NC(C)=O)C(C)C)[C@@H](C)CC)C(C)C)C(=O)NC[C@H](C)C(=O)N[C@H](C(=O)N[C@@H](CCC(=O)O)C(=O)NCC(=O)N[C@@H](CCSC)C(=O)N[C@@H](CO)C(=O)N[C@@H](CCCCN)C(=O)N[C@@H](Cc1c[nH]c2ccccc12)C(=O)N[C@@H](CO)C(=O)N[C@@H](CCCCN)C(=O)N[C@@H](CCCNC(=N)N)C(=O)N[C@@H](CCCCN)C(=O)N[C@@H](CCCCN)C(N)=O)[C@@H](C)CC (HELM PEPTIDE1{[ac].E.E.V.I.K.L.S.G.R.E.L.V.R.A.Q.I.[C[C@@H](CN[*:1])C(=O)[*:2]].I.E.G.M.S.K.W.S.K.R.K.K.[am]}$$$$V2.0) | 230 | 101

More lines, now with the values ahead:

EC50 (Relaxin receptor 1) [nM] | Emax [1] [%] | Compound
17 | 95 | CC[C@H](C)[C@H](NC(=O)[C@H](CCC(N)=O)NC(=O)[C@H](C)NC(=O)[C@H](CCCNC(=N)N)NC(=O)[C@@H](NC(=O)[C@H](CCCCN)NC(=O)[C@H](CCC(=O)O)NC(=O)[C@H](CCCNC(=N)N)NC(=O)CNC(=O)[C@H](CCC(=O)O)NC(=O)[C@H](CC(C)C)NC(=O)[C@H](CCCCN)NC(=O)[C@@H](NC(=O)[C@@H](NC(=O)[C@H](CCC(=O)O)NC(=O)[C@H](CCC(=O)O)NC(C)=O)C(C)C)[C@@H](C)CC)C(C)C)C(=O)NCC(C)C(=O)NCC(C)C(=O)N[C@@H](CCC(=O)O)C(=O)NCC(=O)N[C@@H](CCSC)C(=O)N[C@@H](CO)C(=O)N[C@@H](CCCCN)C(=O)N[C@@H](Cc1c[nH]c2ccccc12)C(=O)N[C@@H](CO)C(=O)NC[C@H](C)C(=O)N[C@@H](CCCNC(=N)N)C(=O)N[C@@H](CCCCN)C(=O)N[C@@H](CCCCN)C(=O)O (stereo partly drawn) (Ac-EEVIKLEGREKVRAQI[ξβ2hAla][ξβ2hAla]EGMSKWS[β2hAla(2S)]RKK-OH)
45 | 97 | CC[C@H](C)[C@H](NC(=O)[C@H](CCC(N)=O)NC(=O)[C@H](C)NC(=O)[C@H](CCCNC(=N)N)NC(=O)[C@@H](NC(=O)[C@H](CCCCN)NC(=O)[C@H](CCC(=O)O)NC(=O)[C@H](CCCNC(=N)N)NC(=O)CNC(=O)[C@H](CCC(=O)O)NC(=O)[C@H](CC(C)C)NC(=O)[C@H](CCCCN)NC(=O)[C@@H](NC(=O)[C@@H](NC(=O)[C@H](CCC(=O)O)NC(=O)[C@H](CCC(=O)O)NC(C)=O)C(C)C)[C@@H](C)CC)C(C)C)C(=O)NC[C@H](C)C(=O)N[C@H](C(=O)N[C@@H](CCC(=O)O)C(=O)NCC(=O)N[C@@H](CCSC)C(=O)N[C@@H](CO)C(=O)N[C@@H](CCCCN)C(=O)N[C@@H](Cc1c[nH]c2ccccc12)C(=O)N[C@@H](CO)C(=O)N[C@@H](CCCCN)C(=O)N[C@@H](CCCNC(=N)N)C(=O)N[C@@H](CCCCN)C(=O)N[C@@H](CCCCN)C(N)=O)[C@@H](C)CC (HELM PEPTIDE1{[ac].E.E.V.I.K.L.E.G.R.E.K.V.R.A.Q.I.[C[C@@H](CN[*:1])C(=O)[*:2]].I.E.G.M.S.K.W.S.K.R.K.K.[am]}$$$$V2.0)
43 | 91 | CC[C@H](C)[C@H](NC(=O)C(C)CNC(=O)[C@H](NC(=O)[C@H](CCC(N)=O)NC(=O)[C@H](C)NC(=O)[C@H](CCCNC(=N)N)NC(=O)[C@@H](NC(=O)[C@H](CCCCN)NC(=O)[C@H](CCC(=O)O)NC(=O)[C@H](CCCNC(=N)N)NC(=O)CNC(=O)[C@H](CCC(=O)O)NC(=O)[C@H](CC(C)C)NC(C)=O)C(C)C)[C@@H](C)CC)C(=O)N[C@@H](CCC(=O)O)C(=O)NCC(=O)N[C@@H](CCSC)C(=O)N[C@@H](CO)C(=O)N[C@@H](CCCCN)C(=O)N[C@@H](Cc1c[nH]c2ccccc12)C(=O)N[C@@H](CO)C(=O)N[C@@H](CCCCN)C(=O)N[C@@H](CCCNC(=N)N)C(=O)N[C@@H](CCCCN)C(=O)N[C@@H](CCCCN)C(N)=O (some centres not stated)
23 | 99 | CC[C@H](C)[C@H](NC(=O)[C@H](CCC(N)=O)NC(=O)[C@H](C)NC(=O)[C@H](CCCNC(=N)N)NC(=O)[C@@H](NC(=O)[C@H](CCCCN)NC(=O)[C@H](CCC(=O)O)NC(=O)[C@H](CCCNC(=N)N)NC(=O)CNC(=O)[C@H](CCC(=O)O)NC(=O)[C@H](CC(C)C)NC(C)=O)C(C)C)C(=O)NC[C@H](C)C(=O)NC[C@H](C)C(=O)N[C@@H](CCC(=O)O)C(=O)NCC(=O)N[C@@H](CCSC)C(=O)N[C@@H](CO)C(=O)N[C@H](C(=O)N[C@@H](Cc1c[nH]c2ccccc12)C(=O)N[C@@H](CO)C(=O)N[C@@H](CCCCN)C(=O)N[C@@H](CCCNC(=N)N)C(=O)N[C@@H](CCCCN)C(=O)N[C@@H](CCCCN)C(N)=O)[C@@H](C)O (HELM PEPTIDE1{[ac].L.E.G.R.E.K.V.R.A.Q.I.[C[C@@H](CN[*:1])C(=O)[*:2]].[C[C@@H](CN[*:1])C(=O)[*:2]].E.G.M.S.T.W.S.K.R.K.K.[am]}$$$$V2.0)
– | 70 | Ac-VIKLSGRELVRAQIAISGMSTWSKRSL-NH2
